Several values for one entry are separate records, joined by “and”; a condition that tells them apart may be missing. Equal entries are not always repeated. Entries after “also recorded” stand apart in the source; their conditions may differ.
Columns and labels:
[1] = test system: collagen antibody-induced arthritis; assay: Mouse CAIA: clinical score; assay type: in vivo, Balb C mice; set-up: key to Clinical Score, Summary (significance): ns: = not significant; *: = P < 0.05; **: = P < 0.01; ***: = P < 0.001; details: for Clinical Score, Difference in rank sum / Clinical Score, Summary (significance): Vehicle vs agent, Dunn's Multiple Comparison Test; for Max Clin Score, Mean / Clinical Score, Day of Study 8, Mean / Clinical Score, Day of Study 11, Mean / Clinical Score, Day of Study 12, Mean / Clinical Score, Day of Study 13, Mean / Clinical Score, Day of Study 16, Mean / Clinical Score, Day of Study 19, Mean / Clinical Score, Day of Study 22, Mean: group mean; for Max Clin Score, Mean / Clinical Score, Day of Study 8, Mean / Clinical Score, Day of Study 11, Mean / Clinical Score, Day of Study 12, Mean / Clinical Score, Day of Study 13, Mean / Clinical Score, Day of Study 16, Mean / Clinical Score, Day of Study 19, Mean / Clinical Score, Day of Study 22, Mean / Day (of Max Clin Score), Mean: n=10; for Clinical Score, Day of Study 8, Mean / Clinical Score, Day of Study 8: day 8 (start of dosing); for Clinical Score, Day of Study 11, Mean / Clinical Score, Day of Study 11: day 11; for Clinical Score, Day of Study 12, Mean / Clinical Score, Day of Study 12: day 12; for Clinical Score, Day of Study 13, Mean / Clinical Score, Day of Study 13: day 13; for Clinical Score, Day of Study 16, Mean / Clinical Score, Day of Study 16: day 16 (Jul. 1, 2011); for Clinical Score, Day of Study 19, Mean / Clinical Score, Day of Study 19: day 19; for Clinical Score, Day of Study 22, Mean / Clinical Score, Day of Study 22: day 22 (endpoint); for Day (of Max Clin Score) / Max Clin Score / Clinical Score, Day of Study 8 / Clinical Score, Day of Study 11 / Clinical Score, Day of Study 12 / Clinical Score, Day of Study 13 / Clinical Score, Day of Study 16 / Clinical Score, Day of Study 19 / Clinical Score, Day of Study 22: individual animal; for Day (of Max Clin Score) / Day (of Max Clin Score), Mean: day of study; for Max Clin Score: maximum over days 8 to 22; for Clinical Score, Day of Study 8 / Clinical Score, Day of Study 11 / Clinical Score, Day of Study 12 / Clinical Score, Day of Study 13 / Clinical Score, Day of Study 16 / Clinical Score, Day of Study 19 / Clinical Score, Day of Study 22: score 0-60; for Day (of Max Clin Score), Mean: listed as 'Mean'; for Mean Maximum Clinical Score: scored from 0 to 60 (15/limb), sum of 4 limbs, vehicle 45.4
Experimental: (§1) The mice were treated with ArthritoMAb (anti-collagen) antibody cocktail (2 mg, i.v.) on day 1, followed 7 days later with an injection of LPS (50 μg, i.p.). On day 8, hind paw volumes were measured for each animal and distributed to various treatment groups.
Factor H was formulated in 20 mM Citrate, 150 mM NaCl, pH=6. […] Ethanercept was formulated as Enbrel™ in saline. Vehicle was formulated in 20 mM Citrate, 150 mM NaCl, pH=6. […] The dosing volume for Factor H and BX12 was 25 mL/kg (0.500 mL/20 g mouse) and adjusted accordingly for body weight.
(§2) Dosing with the different agents was started on day 8 as described in Table 3.

[2] = test system: collagen antibody-induced arthritis; assay: Mouse CAIA: ankle histology scores (H & E); assay type: in vivo, Balb C mice; set-up: key: 0: normal; 1: minimal infiltration of inflammatory cells in periarticular tissue; 2: mild infiltration; 3: moderate infiltration with moderate edema; 4: marked infiltration with marked edema; 5: severe infiltration with severe edema; details: individual animal
Experimental: as §1, with “Balb C mice (n=10 per cohort) were used to determine the efficacy of Factor H (FH) during […]. The” for “The”
as §2
Hind paw volumes were measured on day 8, 11, 12, 13, 15, 19 and 22 (endpoint). The age at start date was 7 to 9 weeks. Body weights were measured bi-weekly to the endpoint (Table 4). At the endpoint, tissue samples were processed for histology and submitted to a pathologist for independent analysis. Sampling 1 was performed at the endpoint. The hind limbs were preserved in 10% formalin. Sampling 2 was performed at the endpoint for group 4 animals. Blood was collected by terminal cardiac puncture. The blood was processed for anti-coagulant. The kidneys were additionally preserved in formalin and followed with 70% EtOH. Samples were scored for inflammation, pannus (granulation tissue), cartilage damage, bone resorption and exostosis (Table 5).

[3] = test system: pre-sensitized kidney transplants; assay: Early phase (POD3, POD5) kidney graft function, CFH with or without Adrenomedullin (Example 3); assay type: in vivo, C57BL/6 (B6) mice; details: result in words; POD5, vs. untreated controls (FIG. 6A)
Experimental: The effect of CFH with or without Adrenomedullin (AM) on kidney graft function, antibody response, and histology was determined following the early phase of transplantation (POD3 and POD5). […] To test whether AM provides additional benefits to renal graft function, an additional group of transplants were treated with a single dose infusion (200 μl, i.v.) of AM (˜100 ug/kg) mixed with CFH (˜1 mg/kg) immediately following the transplant surgery (POD0), in addition to the i.p. injection of CFH (day-1, 0, and every other day). CFH is a serum-binding protein for AM. It has been shown that AM influences the complement regulatory function of Factor H by enhancing the cleavage of C3b via Factor I. […] FH concentration will be 112.5 μg/ml). Transfer 220 μl aliquots to sterile tubes and freeze at −70 until ready for use. All mice were sacrificed on POD3 and 5, respectively (˜5/ea). Untreated transplants sacrificed at the same endpoints were used as controls. Graft tissues were harvested for histology and immune-histochemistry (IHC). The experimental groups were as follows: 1) C3H to B6 txs+pre-sensitization+control; 2) C3H to B6 txs+pre-sensitization+CFH (i.p.); and 3) C3H to B6 txs+pre-sensitization+CFH (i.p.)+AM/CFH infusion (at time of transplant).

[4] = test system: pre-sensitized kidney transplants; assay: Early phase kidney allograft histology, HE staining (Example 3); assay type: in vivo, C57BL/6 (B6) mice; details: result in words; POD5 (FIG. 6B)
Experimental: The effect of CFH with or without Adrenomedullin (AM) on kidney graft function, antibody response, and histology was determined following the early phase of transplantation (POD3 and POD5). The pre-sensitized kidney transplants were treated with CFH (8 mg, i.p.) on day −1, day 0 and then every other day. To test whether AM provides additional benefits to renal graft function, an additional group of transplants were treated with a single dose infusion (200 μl, i.v.) of AM (˜100 ug/kg) mixed with CFH (˜1 mg/kg) immediately following the transplant surgery (POD0), in addition to the i.p. injection of CFH (day-1, 0, and every other day).
All mice were sacrificed on POD3 and 5, respectively (˜5/ea). Untreated transplants sacrificed at the same endpoints were used as controls. Graft tissues were harvested for histology and immune-histochemistry (IHC). The experimental groups were as follows: 1) C3H to B6 txs+pre-sensitization+control; 2) C3H to B6 txs+pre-sensitization+CFH (i.p.); and 3) C3H to B6 txs+pre-sensitization+CFH (i.p.)+AM/CFH infusion (at time of transplant).

[5] = score 0-5, endpoint day 22, listed as Group 3
[6] = score 0-5, endpoint day 22, listed as Group 4

Etanercept
Clinical Score, Difference in rank sum [1]: 3.55
Clinical Score, Summary (significance) [1]: ns
Max Clin Score, Mean [1]: 39.60
Clinical Score, Day of Study 8, Mean [1]: 5.50
Clinical Score, Day of Study 11, Mean [1]: 19.60
Clinical Score, Day of Study 12, Mean [1]: 37.10
Clinical Score, Day of Study 13, Mean [1]: 35.50
Clinical Score, Day of Study 16, Mean [1]: 31.50
Clinical Score, Day of Study 19, Mean [1]: 28.40
Clinical Score, Day of Study 22, Mean [1]: 25.70
Day (of Max Clin Score) [1]: 12 (8×) and 22 and 16
Max Clin Score [1]: 32 and 50 (2×) and 45 and 46 and 35 and 30 and 20 and 34 and 52
Clinical Score, Day of Study 8 [1]: 0 (5×) and 15 and 10 (4×)
Clinical Score, Day of Study 11 [1]: 12 (2×) and 34 and 28 and 4 and 15 and 43 and 11 and 10 and 27
Clinical Score, Day of Study 12 [1]: 32 and 50 (2×) and 45 and 27 and 35 and 26 and 20 and 34 and 52
Clinical Score, Day of Study 13 [1]: 32 and 50 and 45 (2×) and 21 and 35 and 30 and 15 and 34 and 48
Clinical Score, Day of Study 16 [1]: 32 and 49 and 21 and 48 and 25 and 45 and 15 and 10 and 24 and 46
Clinical Score, Day of Study 19 [1]: 32 and 48 and 34 and 25 and 5 and 45 and 20 and 10 and 26 and 37
Clinical Score, Day of Study 22 [1]: 32 and 41 and 34 and 16 (2×) and 40 and 19 and 10 and 23 and 26
Day (of Max Clin Score), Mean [1]: 12.00
Mean Maximum Clinical Score [1]: 39.6^ns
Score From H & E: Bone Resorption [2, 5]: 0
Score From H & E: Cartilage Damage [2, 5]: 0
Score From H & E: Pannus [2, 5]: 2 (3×) and 0 (5×)
Score From H & E: Periosteal/Exostotic Changes [2, 5]: 0

Factor H
renal function, Cr level [3]: trend of improved renal function
Clinical Score, Difference in rank sum [1]: 8.3
Clinical Score, Summary (significance) [1]: ns
Max Clin Score, Mean [1]: 33.40
Clinical Score, Day of Study 8, Mean [1]: 3.00
Clinical Score, Day of Study 11, Mean [1]: 14.60
Clinical Score, Day of Study 12, Mean [1]: 33.40
Clinical Score, Day of Study 13, Mean [1]: 23.60
Clinical Score, Day of Study 16, Mean [1]: 16.90
Clinical Score, Day of Study 19, Mean [1]: 18.20
Clinical Score, Day of Study 22, Mean [1]: 18.80
Day (of Max Clin Score) [1]: 12
Max Clin Score ([1]; listed as BX12): 37 and 42 (2×) and 20 and 21 and 49 and 30 and 32 and 16 and 45
Clinical Score, Day of Study 8 ([1]; listed as BX12): 5 (3×) and 0 (6×) and 15
Clinical Score, Day of Study 11 ([1]; listed as BX12): 25 and 10 (2×) and 15 (2×) and 5 and 18 and 21 (2×) and 6
Clinical Score, Day of Study 12 ([1]; listed as BX12): 37 and 42 (2×) and 20 and 21 and 49 and 30 and 32 and 16 and 45
Clinical Score, Day of Study 13 ([1]; listed as BX12): 18 and 37 and 34 and 20 (2×) and 10 and 40 and 26 and 15 and 16
Clinical Score, Day of Study 16 ([1]; listed as BX12): 13 and 21 and 15 (2×) and 10 and 1 and 43 and 25 and 6 and 20
Clinical Score, Day of Study 19 ([1]; listed as BX12): 25 and 31 and 20 (2×) and 10 (3×) and 0 and 46 and 7
Clinical Score, Day of Study 22 ([1]; listed as BX12): 24 and 31 and 21 and 10 and 1 and 39 and 15 and 26 and 5 and 16
Day (of Max Clin Score), Mean [1]: 12.00
clinical response / clinical score ([1]; result in words (Tables 6 and 7, FIG. 10), listed as FH): improved clinical response compared to vehicle control animals; also recorded: improves more over Etanercept at later time points (days 15 to 22); also recorded: lower clinical score compared to both vehicle and Etanercept
Mean Maximum Clinical Score [1]: 33.4^ns
kidney graft morphology (HE staining) [4]: improved morphology with less tubular necrosis on POD5
Score From H & E: Bone Resorption [2, 6]: 0
Score From H & E: Cartilage Damage [2, 6]: 0
Score From H & E: Pannus [2, 6]: 2 and 0 (4×)
Score From H & E: Periosteal/Exostotic Changes [2, 6]: 0

— patent publication US9248162B2, “Factor H for treatment of rheumatoid arthritis” (Baxter International Inc., priority 2013, dated 2016)
